The values below come from ChEMBL document CHEMBL1201862, “PubChem BioAssay data set” (2004).

Test systems include 786-0; NCI-H226; SK-MEL-2; MOLT-4; LOX IMVI; SK-MEL-28; OVCAR-8; U-251; HCC 2998; UO-31; M14; SNB-75; SF-539; K562; A549.
Assay in all cases: inhibition of tumour cell growth, NCI panel, 48 h

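Protocol summary: plate cells (96-well), add compound at 5 concentrations, incubate 48 h, interpolate endpoints linearly. GI50: concentration for 50% inhibition of growth.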 Active and inactive are the calls of the source. Cut-off read from the data, not from the text of the source: active = GI50 up to about 1.1 µM and inactive = higher.

Take `COCCCNC(=O)C1C(=O)C(=O)N(CCCOC)C1=O` (stereo not given): the GI50 with 786-0, in the assay with NCI-H226, in the assay on SK-MEL-2, in the assay on MOLT-4, in the assay with LOX IMVI and in the assay with SK-MEL-28 was > 100 µM (inactive) in each case. In addition, the GI50 in the assay with OVCAR-8, in the assay on U-251, in the assay with HCC 2998, with UO-31, in the assay with M14 and with SNB-75 was > 100 µM (inactive) throughout. For the same compound, the GI50 with SF-539, with K562 and in the assay on A549 was > 100 µM (inactive) in each case.

Take `Cc1nc(-n2nc(-c3ccccc3)cc2-c2ccccc2)sc1C(/C=C/c1ccc([N+](=O)[O-])cc1)=N/NC(=O)c1ccncc1`: the GI50 is 13.5 µM (inactive) in the assay on 786-0; 17.9 µM (inactive) in the assay with NCI-H226; 17.7 µM (inactive) in the assay with SK-MEL-2; 6.89 µM (inactive) in the assay on MOLT-4; 14.2 µM (inactive) with LOX IMVI; 31.1 µM (inactive) with SK-MEL-28. For the same compound, the GI50 with OVCAR-8 was 28.9 µM (inactive); with U-251 it was 27.7 µM (inactive); in the assay with HCC 2998 it was 5.82 µM (inactive); in the assay with UO-31, 11.7 µM (inactive); with M14 it was 20.2 µM (inactive); with SNB-75, 22.9 µM (inactive). In addition, the GI50 with SF-539 is 13.1 µM (inactive); in the assay on K562, 13.9 µM (inactive); with A549, 30.3 µM (inactive).

For `CCc1cccc(C(C)C)c1NC(=O)CC1Sc2ccccc2NC1=O` (stereo not given), the GI50 was 80 µM (inactive) in the assay with 786-0; > 100 µM (inactive) in the assay with NCI-H226; 39.5 µM (inactive) in the assay on SK-MEL-2; 32.4 µM (inactive) in the assay with MOLT-4; 45 µM (inactive) in the assay on LOX IMVI; > 100 µM (inactive) in the assay with SK-MEL-28. The GI50 in the assay on OVCAR-8 is 78 µM (inactive); with U-251, 71 µM (inactive); with HCC 2998, > 100 µM (inactive); in the assay with UO-31, 43.3 µM (inactive); in the assay on M14 it was 38.6 µM (inactive); with SNB-75 it was 60.7 µM (inactive). Besides, the GI50 with SF-539 was > 100 µM (inactive); in the assay with K562 it was 44.6 µM (inactive); in the assay on A549, 49.2 µM (inactive).

Consider `CC(=O)NC(CCCCN(Cc1ccccc1)C(=O)N(C)N=O)C(=O)NCc1ccccc1` (stereo not given), for which the GI50 with 786-0 was > 100 µM (inactive); with NCI-H226, 36.5 µM (inactive); in the assay with SK-MEL-2, > 100 µM (inactive); in the assay on MOLT-4 it was 39.6 µM (inactive); with LOX IMVI, > 100 µM (inactive); in the assay with SK-MEL-28, > 100 µM (inactive). In addition, the GI50 in the assay on OVCAR-8 is > 100 µM (inactive); with U-251 it was > 100 µM (inactive); in the assay on HCC 2998, > 100 µM (inactive); in the assay with UO-31, 47.3 µM (inactive); in the assay with M14, > 100 µM (inactive); in the assay with SNB-75, 31.9 µM (inactive). Further, the GI50 with SF-539 was > 100 µM (inactive); in the assay on K562, 61 µM (inactive); in the assay with A549, 95.9 µM (inactive).

For `N#CC(/C(=N/NC(=O)C(=O)NN)C(=O)NC12CC3CC(CC(C3)C1)C2)c1ccccc1` (stereo not given), the GI50 in the assay on 786-0, in the assay with NCI-H226, in the assay with SK-MEL-2, with MOLT-4, in the assay with LOX IMVI and in the assay on SK-MEL-28 was > 100 µM (inactive) in each case. Further, the GI50 in the assay on OVCAR-8, with U-251, with HCC 2998, in the assay with UO-31, with M14 and in the assay on SNB-75 was > 100 µM (inactive) each time. Further, the GI50 with SF-539, with K562 and in the assay with A549 was > 100 µM (inactive) in each case.

`COc1ccc(OC(C)=O)c2c1CCC=CC2=O`: the GI50 in the assay on 786-0 was 17.9 µM (inactive); with NCI-H226 it was 18.8 µM (inactive); in the assay with SK-MEL-2, 17.8 µM (inactive); in the assay on MOLT-4, 12.2 µM (inactive); with LOX IMVI it was 4.7 µM (inactive); in the assay on SK-MEL-28, 15 µM (inactive). Further, the GI50 with OVCAR-8 is 16.8 µM (inactive); with U-251 it was 18.3 µM (inactive); with HCC 2998, 17.1 µM (inactive); in the assay on UO-31 it was 17.2 µM (inactive); in the assay on M14, 6.78 µM (inactive); in the assay on SNB-75, 15.8 µM (inactive). The GI50 in the assay with SF-539 is 16.9 µM (inactive); with K562, 3.76 µM (inactive); in the assay on A549 it was 19.1 µM (inactive).

As for `COC(=O)Cc1nn2c(nc1=O)sc1ccc3ccccc3c12`, the GI50 in the assay with 786-0 was 44.3 µM (inactive); in the assay with NCI-H226, > 100 µM (inactive); in the assay with SK-MEL-2, 93.8 µM (inactive); in the assay with MOLT-4, > 100 µM (inactive); in the assay with LOX IMVI, 67.3 µM (inactive); with SK-MEL-28 it was > 100 µM (inactive). Further, the GI50 in the assay with OVCAR-8 was 43.2 µM (inactive); with U-251 it was 25.1 µM (inactive); in the assay with HCC 2998 it was > 100 µM (inactive); with UO-31, > 100 µM (inactive); in the assay on M14, > 100 µM (inactive); with SNB-75, 37.3 µM (inactive). For the same compound, the GI50 with SF-539, in the assay on K562 and in the assay with A549 was > 100 µM (inactive) throughout.

For `CCc1cccc(C(C)C)c1NC(=O)C(=O)C(CC(=O)Nc1ccc(Cl)c(Cl)c1)C(=O)OC` (stereo not given), the GI50 with 786-0, with NCI-H226, with SK-MEL-2, in the assay on MOLT-4, in the assay on LOX IMVI and in the assay on SK-MEL-28 was > 100 µM (inactive) throughout. The GI50 in the assay on OVCAR-8 was > 100 µM (inactive); in the assay on U-251, > 100 µM (inactive); in the assay with HCC 2998, > 100 µM (inactive); in the assay with UO-31, 37.8 µM (inactive); in the assay on M14, 54.3 µM (inactive); with SNB-75, > 100 µM (inactive). In addition, the GI50 with SF-539 is > 100 µM (inactive); in the assay with K562, 10.9 µM (inactive); in the assay with A549 it was > 100 µM (inactive).

In the case of `COc1ccc(/C=c2\sc3nnc(CCC(=O)Nc4cccc(C(F)(F)F)c4)n3c2=O)cc1`, the GI50 was > 71.8 µM (inactive) in the assay with 786-0; > 100 µM (inactive) in the assay on NCI-H226; 72.9 µM (inactive) in the assay with SK-MEL-2; 4.56 µM (inactive) with MOLT-4; > 100 µM (inactive) with LOX IMVI; > 74.3 µM (inactive) in the assay with SK-MEL-28. Besides, the GI50 in the assay with OVCAR-8 was 83.4 µM (inactive); in the assay with U-251 it was > 94.2 µM (inactive); in the assay on HCC 2998 it was > 100 µM (inactive); in the assay on UO-31 it was > 100 µM (inactive); with M14 it was > 100 µM (inactive); in the assay on SNB-75 it was > 75.7 µM (inactive). For the same compound, the GI50 in the assay on SF-539, in the assay on K562 and with A549 was > 100 µM (inactive) throughout.

On to `C[C@]12Cc3cn[nH]c3C(=O)C1CC[C@@H]1C2CC[C@@]2(C)C1CC[C@]2(C)O` (stereo not given in full), for which the GI50 in the assay on 786-0 is 89.5 µM (inactive); in the assay on NCI-H226, > 100 µM (inactive); in the assay on SK-MEL-2 it was > 100 µM (inactive); in the assay with MOLT-4, > 100 µM (inactive); in the assay with LOX IMVI it was > 100 µM (inactive); in the assay on SK-MEL-28, > 100 µM (inactive). For the same compound, the GI50 is > 100 µM (inactive) in the assay on OVCAR-8; > 100 µM (inactive) with U-251; > 100 µM (inactive) in the assay on HCC 2998; > 100 µM (inactive) with UO-31; > 100 µM (inactive) in the assay on M14; 39.7 µM (inactive) in the assay with SNB-75. In addition, the GI50 is 84.5 µM (inactive) in the assay with SF-539, > 100 µM (inactive) with K562 and > 100 µM (inactive) in the assay with A549.

Turning to `O=C(CSc1nc(=O)c(-c2ccccc2NC(=O)C(F)(F)F)n[nH]1)NC(=O)Nc1ccccc1`, the GI50 in the assay with 786-0 is > 100 µM (inactive); with NCI-H226, 67.8 µM (inactive); in the assay with SK-MEL-2 it was > 100 µM (inactive); with MOLT-4 it was > 100 µM (inactive); in the assay with LOX IMVI, > 100 µM (inactive); with SK-MEL-28 it was > 100 µM (inactive). In addition, the GI50 with OVCAR-8 was > 100 µM (inactive); in the assay on U-251, > 100 µM (inactive); in the assay with HCC 2998 it was > 100 µM (inactive); with UO-31 it was 38.1 µM (inactive); in the assay with M14 it was > 100 µM (inactive); in the assay with SNB-75, 21.3 µM (inactive). Also, the GI50 with SF-539 was > 100 µM (inactive); in the assay on K562 it was 61.4 µM (inactive); in the assay with A549, > 100 µM (inactive).

Regarding `Cc1ccccc1N(CC(=O)O)S(=O)(=O)c1ccccc1`, the GI50 in the assay on 786-0, in the assay on NCI-H226, in the assay on SK-MEL-2, in the assay on MOLT-4, in the assay with LOX IMVI and in the assay with SK-MEL-28 was > 100 µM (inactive) each time. Moreover, the GI50 in the assay with OVCAR-8, in the assay with U-251, with HCC 2998, in the assay with UO-31, in the assay with M14 and with SNB-75 was > 100 µM (inactive) in each case. Moreover, the GI50 in the assay on SF-539, with K562 and in the assay with A549 was > 100 µM (inactive) in each case.

As for `CC[C@@H](C(=O)[C@@H](C)[C@@H](O)[C@H](C)CCc1ccc(C)c(O)c1C(=O)O)[C@H]1O[C@](CC)([C@H]2CC[C@](O)(CC)[C@H](C)O2)C[C@@H]1C` [LASALOCID A SODIUM], the GI50 was 2.9 µM (inactive) in the assay with 786-0; 3.05 µM (inactive) with NCI-H226; 1.85 µM (inactive) in the assay on SK-MEL-2; 1.1 µM (active) with MOLT-4; 2.77 µM (inactive) with LOX IMVI; 1.3 µM (inactive) in the assay with SK-MEL-28. For the same compound, the GI50 with OVCAR-8 was 2.3 µM (inactive); in the assay with U-251, 1.34 µM (inactive); in the assay on HCC 2998 it was 1.05 µM (active); in the assay with UO-31, 3.17 µM (inactive); in the assay on M14, 3.31 µM (inactive); in the assay on SNB-75 it was 0.92 µM (active). For the same compound, the values for the GI50 in the assay with SF-539, with K562 and with A549 were 1.15 µM (inactive), 0.664 µM (active) and 2.06 µM (inactive), respectively.
